The subject of test [1] is mice with essential tremor. As to the kind of experiment: Rotating rod test in harmaline induced mouse model of essential tremor. Format: in vivo, ICR male mice. The conditions noted are these: for Residence Time on Rod, Time 0: 15 minutes after modeling with harmaline, immediately before administration; for Residence Time on Rod, Time 0 / Residence Time on Rod, 30 min / Residence Time on Rod, 60 min / Residence Time on Rod, 90 min / Residence Time on Rod, Pre-harmaline: mean ± SD; for Residence Time on Rod, 30 min: 30 min after time 0/administration; for Residence Time on Rod, 30 min / Residence Time on Rod, 60 min / Residence Time on Rod, 90 min: test groups 5 mg/kg·bw intraperitoneal, propranolol 2 mg/kg·bw gavage; for Residence Time on Rod, 60 min: 60 min after time 0/administration; for Residence Time on Rod, 90 min: 90 min after time 0/administration; for Ratio of area under the curve of each group to area under the curve of the model control group: area under the rod exercise ability recovery curve, model control group = 1, normal control group 6.47; for residence time on rod compared with model control group (in words): at each time point 30 min, 60 min, 90 min; for residence time on rod compared with model control group (in words) / recovery of exercise ability in the rotating rod test compared with model control (in words): p<0.05; for Residence Time on Rod, Pre-harmaline: baseline before harmaline and before administration, 10 mice per group, max 180 seconds; for recovery of exercise ability in the rotating rod test compared with model control (in words): from area under the curve, Table 2. The text has this:
Effect of Ginkgo biloba terpene lactone on the Mouse Model of Essential Tremor Induced by Harmaline
The following animals are used: 100 […] (ICR) male mice of SPF grade, weighted 18-22 g, purchased from Chengdu Dashuo Experimental Animal Co., Ltd., with the animal production license number of SCXK (Sichuan) 2015-030.
100 mice were randomly assigned to ear label number and randomly divided into 10 groups according to weight stratified random number method, with 10 mice in each group.
The groups are: normal control group, model control group, propranolol hydrochloride tablet control group, Ginkgo biloba leave extract injection solution control group, ginkgolide injection group, ginkgolide A group, ginkgolide B group, bilobalide group, ginkgolide B/bilobalide group (GB:BB=1:1 w/w) and ginkgolide A/B/C group (A:B:C=1:1:1 w/w/w).
The normal control group and the model control group were administrated 0.9% sodium chloride injection by intraperitoneal injection at 0.1 mL/10 g·bw.
The hydrochloride tablet control group was administrated by gavage a solution (prepared with 0.9% sodium chloride injection) at 2 mg/kg·bw.
Ginkgolide injection group, ginkgolide A group, ginkgolide B group, bilobalide group, ginkgolide B/bilobalide group, ginkgolide A/B/C group were administrated by intraperitoneal injection at 5 mg/kg·bw.
Ginkgo biloba leave extract injection solution control group was administered by intraperitoneal injection at 5 mg/kg·bw.
On the day before the rotating rod test, all mice were given rotating rod training, so that they were familiar with the relevant movements and were able to maintain balance by climbing continuously, without falling from the rotating rod at a low rotating speed (10 circles/min).
First, a rotating rod test was performed on all mice. The result was recorded as Pre-harmaline, used as the basic value of their exercise ability.
15 minutes after modeling, the time when it is observed that the mice given harmaline show obvious tremor, reduced activity and ataxia symptoms, was took as time 0. A rotating rod test was performed on all mice at time 0. Then the mice were administered immediately.
After time 0, a rotating rod test was performed on all mice at time 30 min (30 min), time 60 min (60 min), and time 90 min (90 min).
Rotary rod test method: the mice were placed on the Rota Rod Fatigue Tester, and adapted for 20 seconds. After the mice stood steady on the rod, the tester was started and the rod was accelerated at a constant rate according to the setting. Each mouse's residence time on the rod, from the beginning of the test to the time when falling off the rod, was recorded respectively. The Rota Rod Fatigue Tester supports up to 6 channels for simultaneous testing.
The rod is set to rotate at an initial speed of 5 circles/min (5 c/min) which is increased at a constant rate to a maximum speed of 30 circles/min (30c/min) during 120 seconds, and kept at the maximum speed for 60 seconds. Therefore, each test costs 180 seconds in total, and the mice that had not yet fallen off the rod at the end of 180 seconds was recorded as having a residence time of 180 seconds on the rod.
Exercise ability change curves of the mice in each group were drawn, and the area under the curve was calculated.
The experimental data were processed by using a SPSS 19.0 statistical software. The measurement data are expressed as mean±standard deviation (±SD). Data normality test was performed using the Kolmogorov-Smirnov method.

For test [2], the system named is Patients with Essential Tremor. As to the kind of experiment: Observation of dropping pills on patients with essential tremor (tremor score, adverse reactions). It counts as in vivo, human. Conditions: Patient 2, general information before treatment.
Text: The following 6 items related to tremor are scored: 1) patient complaint; 2) upper limb tremor procedure; 3) head, jaw, tongue and lower limb tremor degree; 4) full water test; 5) dressing, eating, buttoning and chopstick using; and 6) drawing circles and straight lines. The score for each item is classified as: normal (scored 0 piont), mild (scored 1 point), moderate (scored 2 points) and severe (scored 3 points).
Ineffective: the difference in tremor score before and after the treatment is −1 to 1.
(§1) Deterioration: the difference in tremor score before and after the treatment is ≤−2.
The test system of test [3] is Patients with Vascular Tremor. Put plainly: Observation of dropping pills on patients with vascular tremor (tremor score, adverse reactions). Format: in vivo, human. The conditions noted are these: Patients 1, 2, 3, general information before treatment.
Text: Diagnosis criteria: A. Reduced movement, muscle rigidity, forward gait, broken steps and reciprocating; B. Positive signs of the nervous system; C. A history of hypertension and cerebral arteriosclerosis.
Exclusion criteria: Tremor paralysis caused by drugs and other diseases are excluded.
The following 6 items related to tremor are scored: 1) patient complaint; 2) upper limbs tremor procedure; 3) head, jaw, tongue and lower limbs tremor degree; 4) full water test; 5) dressing, eating, buttoning and chopsticks using; 6) drawing circles and straight lines. The score for each item is classified as: normal (scored 0 piont), mild (scored 1 point), moderate (scored 2 points) and severe (scored 3 points).
Ineffective: the difference in tremor score before and after the treatment is −1 to 1
as §1

Counter-ions that a name gives are not always drawn.

For the molecule `CC(C)(C)[C@]1(O)CC2OC(=O)CC23C(=O)OC2OC(=O)[C@H](O)C231` (stereo partly shown) [Bilobalide, bilobalide], in test [1], the “Residence Time on Rod, Time 0” value was found to be 40.0 ± 15.6 s; the “Residence Time on Rod, 30 min” value was 48.2 ± 12.8 s; the “Residence Time on Rod, 60 min” value was 61.2 ± 15.2 s; the “Residence Time on Rod, 90 min” value was found to be 90.6 ± 13.9 s. In addition, in test [1], the “Ratio of area under the curve of each group to area under the curve of the model control group” value (from here on “Ratio of area”) stood at 2.20; the “residence time on rod compared with model control group (in words)” value is “significantly higher than that of the model control group”; the “Residence Time on Rod, Pre-harmaline” value came to 171.6 ± 17.9 s; the “recovery of exercise ability in the rotating rod test compared with model control (in words)” value is listed as “significantly better than that of model control mice”.

Regarding `C[C@@H]1C(=O)O[C@H]2C[C@@]34[C@H]5C[C@@H](C(C)(C)C)[C@]36[C@@H](OC(=O)[C@@H]6O)O[C@@]4(C(=O)O5)[C@]21O` [Ginkgolide A, ginkgolide A], in test [1], the “Residence Time on Rod, Time 0” value was determined as 42.6 ± 10.8 s; the “Residence Time on Rod, 30 min” value is 50.8 ± 10.9 s; the “Residence Time on Rod, 60 min” value was found to be 60.3 ± 13.1 s; the “Residence Time on Rod, 90 min” value stood at 91.4 ± 11.5 s. Moreover, in test [1], the “Ratio of area” value is 2.24; the “residence time on rod compared with model control group (in words)” value is listed as “significantly higher than that of the model control group”; the “Residence Time on Rod, Pre-harmaline” value amounted to 170.6 ± 21.2 s; the “recovery of exercise ability in the rotating rod test compared with model control (in words)” value is on record as “significantly better than that of model control mice”.

With `CC1C(=O)OC2C(O)C34C5CC(C(C)(C)C)C36C(OC(=O)C6O)OC4(C(=O)O5)C12O` (stereo not shown) [Ginkgolide B, ginkgolide B], in test [1], the “Residence Time on Rod, Time 0” value was found to be 43.9 ± 12.3 s; the “Residence Time on Rod, 30 min” value is 52.6 ± 9.8 s; the “Residence Time on Rod, 60 min” value is 65.8 ± 12.8 s; the “Residence Time on Rod, 90 min” value was 100.2 ± 14.2 s. In addition, in test [1], the “Ratio of area” value was 2.39; the “residence time on rod compared with model control group (in words)” value is listed as “significantly higher than that of the model control group”; the “Residence Time on Rod, Pre-harmaline” value was determined as 175.7 ± 18.3 s; the “recovery of exercise ability in the rotating rod test compared with model control (in words)” value is recorded as “significantly better than that of model control mice”.

In the case of `N[C@@H](Cc1ccc(O)c(O)c1)C(=O)O` [Levodopa], the “effect in this patient (patient history)” value in test [2] and in test [3] was “no effect” each time.

As to `CC(C)NCC(O)COc1cccc2ccccc12` (stereo not shown) [Propranolol hydrochloride tablet, Propranolol hydrochloride, reference compound], in test [1], the “Residence Time on Rod, Time 0” value was 41.6 ± 12.8 s; the “Residence Time on Rod, 30 min” value was found to be 60.1 ± 12.8 s; the “Residence Time on Rod, 60 min” value turned out to be 77.6 ± 10.3 s; the “Residence Time on Rod, 90 min” value stood at 119.3 ± 13.0 s. Besides, in test [1], the “Ratio of area” value is 2.74; the “residence time on rod compared with model control group (in words)” value was “significantly higher than that of the model control group”; the “Residence Time on Rod, Pre-harmaline” value was found to be 176.6 ± 12.9 s; the “recovery of exercise ability in the rotating rod test compared with model control (in words)” value is “significantly better than that of model control mice”.

Values taken from patent publication US20210196675A1, “USE OF GINKGO BILOBA TERPENE LACTONE IN PREPARATION OF DRUGS FOR PREVENTION AND/OR TREATMENT OF TREMORS AND HEALTHCARE PRODUCTS” (CHENGDU BAIYU PHARMACEUTICAL CO., LTD., priority 2018, published 2021).
